# Test results published in patent publication EP2687213B1, “Solid forms comprising (+)-2-[1-(3-ethoxy-4-methoxyphenyl)-2-methylsulfonylethyl]-4-acetylaminoisoindoline-1,3-dione, compositions thereof, and uses thereof” (CELGENE CORPORATION, priority 2008, dated 2009).
# How the values were obtained:
# [1] = biological target: human PDE2 (Homo sapiens, UniProt O00408); assay: PDE2 enzyme assay; assay type: biochemical; conditions: from PDE inhibition data of Table 1
# [2] = biological target: T1, PDE6 from bovine retinal rod outer segments (Bos taurus, UniProt P11541+P23439); assay: PDE6 enzyme assay; assay type: biochemical; conditions: from PDE inhibition data of Table 1
# T1 construct: PDE6 from bovine retinal rod outer segments; from tissue; host or cells: bovine retinal rod outer segments
# T1 sequence (P11541 2-856 limits assumed): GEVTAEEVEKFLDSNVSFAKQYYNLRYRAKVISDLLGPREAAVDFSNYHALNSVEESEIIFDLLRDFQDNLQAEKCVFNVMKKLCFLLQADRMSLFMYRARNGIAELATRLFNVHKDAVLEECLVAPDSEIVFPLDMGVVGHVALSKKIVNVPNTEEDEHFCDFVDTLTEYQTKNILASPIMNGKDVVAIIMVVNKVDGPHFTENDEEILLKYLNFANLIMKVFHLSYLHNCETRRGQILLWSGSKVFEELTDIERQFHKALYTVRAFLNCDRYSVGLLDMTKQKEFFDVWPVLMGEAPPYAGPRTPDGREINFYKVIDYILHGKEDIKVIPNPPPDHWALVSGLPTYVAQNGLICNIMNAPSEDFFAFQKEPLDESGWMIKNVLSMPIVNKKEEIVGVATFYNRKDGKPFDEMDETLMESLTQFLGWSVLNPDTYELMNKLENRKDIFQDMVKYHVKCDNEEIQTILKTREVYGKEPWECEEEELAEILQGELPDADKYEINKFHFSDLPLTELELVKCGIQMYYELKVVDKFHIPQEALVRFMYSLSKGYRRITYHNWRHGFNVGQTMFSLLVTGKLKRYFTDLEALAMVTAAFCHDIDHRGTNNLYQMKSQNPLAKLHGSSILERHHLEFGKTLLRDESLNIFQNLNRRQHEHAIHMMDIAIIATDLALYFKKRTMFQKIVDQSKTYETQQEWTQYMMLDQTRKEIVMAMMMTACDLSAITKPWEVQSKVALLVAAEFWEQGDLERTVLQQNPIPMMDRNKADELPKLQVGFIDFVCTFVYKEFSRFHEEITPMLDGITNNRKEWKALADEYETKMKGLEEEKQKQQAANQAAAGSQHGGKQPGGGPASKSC
# T1 sequence (P23439 2-850 limits assumed): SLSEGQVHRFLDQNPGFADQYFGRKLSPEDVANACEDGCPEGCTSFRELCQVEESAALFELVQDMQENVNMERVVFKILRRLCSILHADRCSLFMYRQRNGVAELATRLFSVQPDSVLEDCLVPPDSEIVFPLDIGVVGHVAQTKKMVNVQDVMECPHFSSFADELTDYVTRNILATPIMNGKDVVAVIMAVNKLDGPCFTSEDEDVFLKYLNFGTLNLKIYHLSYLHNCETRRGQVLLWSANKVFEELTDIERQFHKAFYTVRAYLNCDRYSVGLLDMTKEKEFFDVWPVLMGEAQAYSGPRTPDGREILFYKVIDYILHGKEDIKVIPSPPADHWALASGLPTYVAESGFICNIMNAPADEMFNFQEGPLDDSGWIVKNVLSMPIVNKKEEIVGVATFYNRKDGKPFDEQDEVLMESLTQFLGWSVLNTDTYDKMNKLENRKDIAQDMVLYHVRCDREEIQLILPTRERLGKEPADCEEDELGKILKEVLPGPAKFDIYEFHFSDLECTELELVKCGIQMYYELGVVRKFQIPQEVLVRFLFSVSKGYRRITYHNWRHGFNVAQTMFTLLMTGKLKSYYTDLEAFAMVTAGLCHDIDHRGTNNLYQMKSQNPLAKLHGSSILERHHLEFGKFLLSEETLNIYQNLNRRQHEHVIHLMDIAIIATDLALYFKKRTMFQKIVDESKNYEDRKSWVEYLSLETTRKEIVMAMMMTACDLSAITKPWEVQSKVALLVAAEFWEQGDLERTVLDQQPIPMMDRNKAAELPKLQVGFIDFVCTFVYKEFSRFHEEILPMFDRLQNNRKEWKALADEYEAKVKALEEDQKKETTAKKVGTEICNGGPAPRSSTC
# [3] = Equilibrium aqueous solubility in pH 7.4 buffer; assay type: physicochemical
# Procedure: Equilibrium solubilities were measured in pH 7.4 aqueous buffer. The pH 7.4 buffer was prepared by adjusting the pH of a 0.07 M NaH2PO4 solution to 7.4 with 10 N NaOH. The ionic strength of the solution was 0.15. At least 1 mg of powder was combined with 1 ml of buffer to make >1 mg/ml mixture. These samples were shaken for >2 hours and left to stand overnight at room temperature. The samples were then filtered through a 0.45-µm Nylon syringe filter that was first saturated with the sample. The filtrate was sampled twice, consecutively. The filtrate was assayed by HPLC against standards prepared in 50% methanol.
# human PDE2, sequence (O00408 whole entry): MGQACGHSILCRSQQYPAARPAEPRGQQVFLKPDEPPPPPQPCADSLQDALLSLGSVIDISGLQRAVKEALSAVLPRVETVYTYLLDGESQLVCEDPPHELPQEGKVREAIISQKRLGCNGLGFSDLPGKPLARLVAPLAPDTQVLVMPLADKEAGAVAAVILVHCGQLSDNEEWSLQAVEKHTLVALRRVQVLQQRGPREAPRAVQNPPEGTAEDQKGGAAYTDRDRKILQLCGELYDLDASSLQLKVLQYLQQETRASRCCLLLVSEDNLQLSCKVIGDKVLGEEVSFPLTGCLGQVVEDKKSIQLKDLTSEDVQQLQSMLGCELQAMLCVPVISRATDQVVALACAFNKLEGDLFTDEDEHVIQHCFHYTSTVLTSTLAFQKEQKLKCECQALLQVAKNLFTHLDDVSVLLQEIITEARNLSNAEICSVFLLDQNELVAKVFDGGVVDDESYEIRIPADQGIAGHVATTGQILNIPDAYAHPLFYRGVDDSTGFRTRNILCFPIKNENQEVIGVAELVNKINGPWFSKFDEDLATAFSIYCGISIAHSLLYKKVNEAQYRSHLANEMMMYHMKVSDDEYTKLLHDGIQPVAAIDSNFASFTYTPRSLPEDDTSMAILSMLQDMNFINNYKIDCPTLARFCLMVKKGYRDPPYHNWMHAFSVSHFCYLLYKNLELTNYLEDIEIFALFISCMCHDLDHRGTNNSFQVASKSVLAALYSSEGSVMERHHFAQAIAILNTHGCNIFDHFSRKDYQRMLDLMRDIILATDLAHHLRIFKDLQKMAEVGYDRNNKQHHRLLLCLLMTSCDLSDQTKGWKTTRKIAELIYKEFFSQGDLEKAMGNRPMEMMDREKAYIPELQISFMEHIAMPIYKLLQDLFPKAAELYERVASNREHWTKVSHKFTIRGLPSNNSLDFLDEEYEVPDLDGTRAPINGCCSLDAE
structure (smiles),measurement,setting,value
"CCOc1cc(C(CS(C)(=O)=O)N2C(=O)c3cccc(NC(C)=O)c3C2=O)ccc1OC (single isomer, unassigned; (+)) [Compound A, (+)-2-[1-(3-ethoxy-4-methoxyphenyl)-2-methylsulfonylethyl]-4-acetylaminoisoindoline-1,3-dione]",PDE Specificity Ratio PDE4/PDE2,[1],>10000 fold
same,PDE Specificity Ratio PDE4/PDE6,[2],>40000 fold
same,aqueous solubility greater than the racemic mixture,[3],3.5 fold
